Experimental data published in ChEMBL document CHEMBL3832761, “MMV Pathogen Box Bioactivity Data” (2017).

Experiments:
[1] = tested on: Brugia malayi; test: AntiBrugia malayi activity Effect on motility; type: functional, organism-based
[2] = tested on: HepG2; test: Cytotoxicity data HepG2 CC20 (uM); type: functional
[3] = tested on: Onchocerca lienalis; test: AntiOnchocerca activity O. lienalis microfilariae Motility reduction (%); type: functional; parameters: concentration or dose not given beside the values
[4] = tested on: Onchocerca lienalis; test: AntiOnchocerca activity O. lienalis microfilariae EC50 (uM); type: functional, organism-based
[5] = tested on: Onchocerca gutturosa; test: AntiOnchocerca activity O. gutturosa adult males: MTT reduction at 12.5 uM (%); type: functional; parameters: scale not given: the % may be the effect or the level left
[6] = tested on: Onchocerca gutturosa; test: AntiOnchocerca activity O. gutturosa adult males: Motility reduction at 12.5 uM (%); type: functional; parameters: scale not given: the % may be the effect or the level left
[7] = tested on: Onchocerca gutturosa; test: AntiOnchocerca activity O. gutturosa adult males: EC50 (uM); type: functional, organism-based
[8] = tested on: Ancylostoma ceylanicum; test: microbe, parasite or virus in culture
Description: AntiAncylostoma ceylanicum activity Inhibition at 200 uM (%)

[9] = tested on: Ancylostoma ceylanicum; test: microbe, parasite or virus in culture; remark: listed apart in the source
Description: AntiAncylostoma ceylanicum activity Inhibition at 50 uM(%)

[10] = tested on: Toxoplasma gondii; test: AntiToxoplasma gondii activity data 2-day killing assay: IC50 (uM), Experiment G; type: functional, organism-based; conditions: Toxoplasma gondii, 48 h; read-out: IC50
[11] = tested on: Toxoplasma gondii; test: AntiToxoplasma gondii activity data 2-day killing assay: inhibition at 10 uM (%) Experiment D; type: functional
[12] = tested on: CHO; test: CHO CC50 (uM) Cytotoxicity; type: functional; conditions: Cricetulus griseus
[13] = tested on: Toxoplasma gondii; test: AntiToxoplasma gondii activity data Inhibition of plaque forming efficiency (%) Experiment A; type: functional; parameters: concentration or dose not given beside the values
[14] = tested on: Toxoplasma gondii; test: AntiToxoplasma gondii activity data 2-day killing assay: inhibition at 10 uM (%) Experiment E; type: functional
[15] = tested on: Toxoplasma gondii; test: AntiToxoplasma gondii activity data 2-day killing assay: inhibition at 10 uM (%) Experiment C; type: functional; conditions: 48 h
[16] = tested on: Toxoplasma gondii; test: AntiToxoplasma gondii activity data 2-day killing assay: IC50 (uM), Experiment F; type: functional, organism-based; conditions: Toxoplasma gondii, 48 h; read-out: IC50

CC1(C)OB(O)c2ccc(C3=NOC(c4cc(Cl)c(F)c(Cl)c4)(C(F)(F)F)C3)cc21 (stereo not given)
Inhibition [1]: 50% | CC20 [2]: 15.4 µM

Cc1[nH]c2cc(F)cc(F)c2c(=O)c1-c1ccc(Oc2ccc(OC(F)(F)F)cc2)cc1
Activity [3]: 100% | CC20 [2]: >80 µM | EC50 [4]: 1.37 µM | Activity [5]: 56.9% | Activity [6]: 58.9% | EC50 [7]: 2.91 µM

CN1CCCC1CCO[C@](C)(c1ccccc1)c1ccc(Cl)cc1 (stereo not given in full)
inhibition at 200 µM [8]: 76% | inhibition at 50 µM [9]: 47% | CC20 [2]: 9.28 µM

Nc1ncnc2c1c(-c1cnc3ccccc3c1)nn2CC1CCNCC1
IC50 [10]: 7.55 µM | Inhibition [11]: 72.3% | CC50 [12]: > 50 µM | Inhibition [13]: ~60% | Inhibition [14]: 92.8% | inhibition at 10 µM [15]: 48.8% | IC50 [16]: 6.77 µM

Cc1cc(C2=NOC(c3cc(Cl)c(F)c(Cl)c3)(C(F)(F)F)C2)ccc1C(=O)NCc1ccc2c(c1)C(C)(C)OB2O (stereo not given)
IC50 ([1]; Brugia malayi): 3.04 µM | CC20 [2]: 10.9 µM
